The target in one test is T1, STAT5b SH2 domain (Homo sapiens, UniProt P51692).
T1 sequence (P51692 1-787): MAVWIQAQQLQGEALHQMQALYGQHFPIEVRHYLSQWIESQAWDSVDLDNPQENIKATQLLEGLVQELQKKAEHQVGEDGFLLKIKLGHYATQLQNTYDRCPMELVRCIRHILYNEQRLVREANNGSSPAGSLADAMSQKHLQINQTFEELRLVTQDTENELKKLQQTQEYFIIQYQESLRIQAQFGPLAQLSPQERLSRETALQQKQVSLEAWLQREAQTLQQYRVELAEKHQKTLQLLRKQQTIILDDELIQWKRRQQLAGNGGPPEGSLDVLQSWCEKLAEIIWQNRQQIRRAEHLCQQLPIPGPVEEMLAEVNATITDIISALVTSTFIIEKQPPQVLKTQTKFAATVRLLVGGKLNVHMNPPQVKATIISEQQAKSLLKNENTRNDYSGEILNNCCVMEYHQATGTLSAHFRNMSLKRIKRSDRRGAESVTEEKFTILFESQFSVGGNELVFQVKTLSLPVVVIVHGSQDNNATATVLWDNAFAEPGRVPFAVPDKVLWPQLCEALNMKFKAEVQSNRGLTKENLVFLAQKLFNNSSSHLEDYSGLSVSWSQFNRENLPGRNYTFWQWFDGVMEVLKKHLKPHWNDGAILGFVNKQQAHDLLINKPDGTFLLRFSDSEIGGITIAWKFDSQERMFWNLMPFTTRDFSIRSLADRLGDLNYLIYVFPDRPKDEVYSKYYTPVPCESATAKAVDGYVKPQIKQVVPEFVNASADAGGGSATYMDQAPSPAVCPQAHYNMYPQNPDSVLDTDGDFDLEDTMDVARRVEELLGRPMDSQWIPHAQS
Description: FP-based competitive binding assay, STAT5b SH2 domain. The note with it: at 80 µM, mean ± s.d., three experiments. Here is the method:
The STAT family display a high degree of homology. […] Vilsmeyer-Haack formylation of 2-hydroxy acetophenones led to 3-formyl chromones, which were subsequently converted to the acyl hydrazones by reaction with hydrazides (Fig. 1). The target molecules were tested for their abilities to inhibit binding of fluorophore-labeled peptides to the SH2 domains of STAT1[24], STAT3[25], and STAT5b[26] in assays based on fluorescence polarization (FP). The more distantly related SH2 domain of the tyrosine kinase Lck served as additional specificity control[27],[28].
Assays were performed essentially as described. In brief, protein was incubated with the test compounds for 1 h at room temperature at the following protein concentrations: STAT1: 400 nM, STAT3: 210 nM, STAT5b: 300 nM, Lck SH2: 35 nM. Subsequently, the corresponding fluorophore-labeled peptide was added: STAT1: (5-carboxyfluorescein)-GpYDKPHVL-OH, derived from the interferon-γ receptor[24]; STAT3: (5-carboxyfluorescein)-GpYLPQTV-NH2, derived from the gp130 subunit of the IL-6 receptor[25]; STAT5b: (5-carboxyfluorescein)-GpYLVLDKW-OH, derived from the erythropoietin receptor[26]; Lck SH2: (5-carboxyfluorescein)-GpYEEIP-OH, derived from the middle-T antigen. After a further hour of incubation, fluorescence polarization was measured in a plate reader (Tecan Infinite F500). Apparent IC50 data shown in Tables 1, 2, and S1 and the inhibition curves shown in Fig. 2a correspond to this time point. The majority of the pipetting work was carried out using a Biomek FXp workstation (Beckman-Coulter). Buffer composition: 10 mM Tris pH 8.0, 50 mM NaCl, 1 mM EDTA, 1 mM dithiothreitol (DTT), 0.1% Nonidet P-40, and 2% DMSO.

The subject of a further test is MDA-MB-453 cells. Description: Apoptosis assay (Annexin V/7-AAD flow cytometry), MDA-MB-453 cells. Type of test: cell-based, human. The note with it: 24 h. Here is the method:
MDA-MB-453 cells (3 × 10^5 cells per well), MDA-MB-231 cells (2 × 10^5 cells per well), parental HCC-827 or Erlotinib-resistant HCC-827 cells (both 2.5 × 10^5 cells per well) were seeded in 24-well tissue culture plates (Corning #3524) and treated with test compound or DMSO (final DMSO concentration: 0.2%) for 24 h. Afterwards, the cell culture supernatant from each well was collected. Cells were washed twice with warm PBS and incubated with Accutase (BD Bioscience #561527) at 37 °C for 10 min. The supernatants were then returned to each well to neutralize the Accutase solution and the cells were centrifuged at 3000 rpm, at 4 °C for 5 min. The cell pellets were washed twice with cold PBS and centrifuged again. PE Annexin V Apoptosis Detection Kit I (BD Bioscience, 559763) was used for cell staining. Cells were resuspended in 1 x binding buffer and incubated with PE Annexin V and 7-AAD at 4 °C for 30 min. Apoptosis was measured using an LSR II flow cytometer (BD Bioscience). Experiments were carried out in at least triplicate.
Background: In flow cytometry, cells or beads pass a laser one at a time.

Structures are written as SMILES.

With `CC(C)(C)c1ccc2occ(/C=N/NC(=O)c3cccnc3)c(=O)c2c1` [Compound 8], the inhibition (commonly the share of the control response that was lost under treatment) at 80 µM at STAT5b SH2 domain worked out at 32 ± 2%. In addition, the “increase in rate of apoptosis relative to DMSO control” value in the test with MDA-MB-453 cells is on record as “did not show an increase”.

As for `CCC(C)(C)c1ccc2occ(/C=N/NC(=O)c3cccnc3)c(=O)c2c1` [Compound 9], at STAT5b SH2 domain, the STAT5b inhibition result is “no inhibition at 80 µM”. Further, in the test on MDA-MB-453 cells, the “increase in rate of apoptosis relative to DMSO control” value is given as “did not significantly increase apoptosis”.

These data come from PMC5727211, “Development of Erasin: a chromone-based STAT3 inhibitor which induces apoptosis in Erlotinib-resistant lung cancer cells” (Scientific Reports, 2017).
